In US20200237626A1, “Anti-Aging Corrective and Protective Formulation and Methods” (JAMRM, LLC, priority 2019, published 2020):

System: human skin cells (HEKn keratinocytes)
Assay: Urban Dust induced lipid peroxidation
Format: cell-based
Settings: after 4 hours, test sample 5%
Method: A third-party testing facility conducted tests to determine the effects of standardized Urban Dust particulates (NIST® SRM® 1649b) on the production of free radicals and lipid peroxidation in human skin cells (HEKn keratinocytes). Tests were conducted at 1 hour, 2 hours and 3 hours with varying concentrations of the test samples (1%, 3%, and 5%) (i.e. at one hour intervals) to measure intracellular reactive oxygen species and after 4 hours with test sample (5%) for lipid peroxidation. A fluorescent plate reader was utilized to measure a fluorescent dye incubated in all test conditions which measures intracellular reactive oxygen species and lipid peroxidation. The measurement is expressed as the mean relative fluorescent unit (RFU). FIG. 4B illustrates by bar graph the effects of the Urban Dust on tissue. Non-exposed tissue has immeasurably low RFU. The urban dust exposed cells have an increase in lipid peroxidation with 0.2 RFU.

## Cc1c(C)c2c(c(C)c1O)CCC(C)(C(=O)O)O2 (centres unmarked) [Trolox]
Exposed to Urban Dust, Urban Dust alone 0.2 RFU
  Lipid peroxidation (mean RFU): about 0.05 RFU
Vs Urban Dust exposed cells
  Reduction in lipid peroxidation: 67%
